Experiments:
CR mice = assay: MTD experiment, dose gradient by gavage; type: in vivo; details: for Survival number: 10 mice per dose
Description: Mice are commonly used rodents to evaluate the toxicity of a test sample and are also an important part of early preclinical safety evaluation. In this experiment, the toxicity of compound 50561 was tested by administering a dose gradient thereof to the mice by gavage and observing its toxicity.
This experiment was designed such that for each dose centration, 10 mice were tested, including half males and half females. The males each weighed about 18-23 grams, and the females each weighed about 17-21 grams. They were randomly grouped by a simple randomization procedure. All the animals used in the experiment weighed between ±20% of the average body weight of their respective genders. If there are not enough animals in the study to meet the weight range required thereby, notify the responsible person of the project to take reasonable measures. Animals must be adapted to the laboratory for at least three days. During this period, daily cage observation was conducted once a day, and a detailed clinical observation was necessary before the experiment. Any animal with symptoms or physical abnormalities would be reported to the attending veterinarian and responsible person of the project, and excluded whenever possible. Animals suitable for experimentation will be assigned to respective experimental groups according to the random grouping method described above.
During the experiment, after administration, all animals were observed continuously for 4 hours; from the end of administration till 3 days thereafter, observations were carried out twice each day, one in the morning and the other in the afternoon; and then observation was carried out once a day. Observations included but were not limited to: skin, hair, eyes, ears, nose, mouth, chest, abdomen, external genitals, limbs, and feet. The respiratory and circulatory systems, autonomic effects (such as salivation), and nervous system (such as tremors, convulsions, stress responses, and abnormal behaviors) should be focused on. Complete anatomical examinations would be performed on all animals that had died, were dying, or planned to be euthanized. Animals found dead outside of fixed working hours could be placed in the refrigerator overnight and dissected immediately on the next working day. At the end of the experiment (14th day after administration), all animals requiring autopsy would be euthanized and autopsied.
External abnormalities in animals, such as palpable masses, should be examined in detail. The skin would be cut along the midline of the abdomen, and any subcutaneous mass would be confirmed in conjunction with the findings in the observations of animal symptoms. […] Diseased organs were removed, weighed, recoded, and kept in a fixative fluid.

[1] = tested on: Salmonella typhimurium TA98; assay: Mini Ames experiment, strain TA98; type: cell-based
Description: (§1) Histidine auxotrophic strains of Salmonella typhimurium were cultured in a special medium with quite a low content of histidine. The strains were difficult to divide due to lack of nutrition. If a test compound has mutagenicity, a large number of cells will undergo reverse mutation, synthesizing histidine by themselves and developing into colonies visible to the naked eye. In view of the close relationship between mutagenicity and carcinogenesis of chemicals, this method has been widely used in screening carcinogens. Some chemicals need metabolic activation to induce mutagenicity. Mammalian microsomal enzyme S9 can be added into the test system to eliminate the influence of metabolic activation on generation of mutagenicity.
(§2) […] Mini Ames test with compound 50561

[2] = tested on: Salmonella typhimurium TA100; assay: Mini Ames experiment, strain TA100; type: cell-based
Description: as §1, §2

[3] = TA98, With Metabolic Activation, 1.5 μg per well
[4] = TA98, With Metabolic Activation, 4 μg per well
[5] = TA98, With Metabolic Activation, 10 μg per well
[6] = TA98, With Metabolic Activation, 25 μg per well
[7] = TA98, With Metabolic Activation, 64 μg per well
[8] = TA98, With Metabolic Activation, 160 μg per well
[9] = TA98, With Metabolic Activation, 400 μg per well
[10] = TA98, With Metabolic Activation, 1000 μg per well
[11] = TA98, Without Metabolic Activation, 1.5 μg per well
[12] = TA98, Without Metabolic Activation, 4 μg per well
[13] = TA98, Without Metabolic Activation, 10 μg per well
[14] = TA98, Without Metabolic Activation, 25 μg per well
[15] = TA98, Without Metabolic Activation, 64 μg per well
[16] = TA98, Without Metabolic Activation, 160 μg per well
[17] = TA98, Without Metabolic Activation, 400 μg per well
[18] = TA98, Without Metabolic Activation, 1000 μg per well
[19] = TA100, With Metabolic Activation, 1.5 μg per well
[20] = TA100, With Metabolic Activation, 4 μg per well
[21] = TA100, With Metabolic Activation, 10 μg per well
[22] = TA100, With Metabolic Activation, 25 μg per well
[23] = TA100, With Metabolic Activation, 64 μg per well
[24] = TA100, With Metabolic Activation, 160 μg per well
[25] = TA100, With Metabolic Activation, 400 μg per well
[26] = TA100, With Metabolic Activation, 1000 μg per well
[27] = TA100, Without Metabolic Activation, 1.5 μg per well
[28] = TA100, Without Metabolic Activation, 4 μg per well
[29] = TA100, Without Metabolic Activation, 10 μg per well
[30] = TA100, Without Metabolic Activation, 25 μg per well
[31] = TA100, Without Metabolic Activation, 64 μg per well
[32] = TA100, Without Metabolic Activation, 160 μg per well
[33] = TA100, Without Metabolic Activation, 400 μg per well
[34] = TA100, Without Metabolic Activation, 1000 μg per well

O=C1C=C(OCc2ccc(F)cc2)[C@H](Cc2ccccc2)N1 [Compound 50561]
Remarks: condition of the body (CR mice; 250 mg/kg): in good condition.
Survival number (CR mice; 250 mg/kg by gavage): 10
Remarks: Body weight decreased by (CR mice; 250 mg/kg, quickly recovered): about 2 g, which was quickly
Remarks: Body weight decreased by (CR mice; 500 mg/kg): about 2 g; individual activity
Remarks: condition of the body; organs of the dead individuals (CR mice; 500 mg/kg): in good condition. There
Survival number (CR mice; 500 mg/kg by gavage): 8
Remarks: organs in dead individuals (CR mice; 750 mg/kg): No abnormality of organs
Survival number (CR mice; 750 mg/kg by gavage): 0
Remarks: organs in dead individuals (CR mice; 1000 mg/kg): No abnormality of organs
Survival number (CR mice; 1000 mg/kg by gavage): 0
maximum tolerance (MTD) (CR mice; CR mice, by gavage): < 500 mg/kg
Mean Revertants Per Well [1, 3]: 8.67
Ratio Treated/Solvent [1, 3]: 1.04
Mean Revertants Per Well [1, 4]: 13.33
Ratio Treated/Solvent [1, 4]: 1.60
Mean Revertants Per Well [1, 5]: 9.33
Ratio Treated/Solvent [1, 5]: 1.12
Mean Revertants Per Well [1, 6]: 12.67
Ratio Treated/Solvent [1, 6]: 1.52
Mean Revertants Per Well [1, 7]: 12.33
Ratio Treated/Solvent [1, 7]: 1.48
Mean Revertants Per Well [1, 8]: 7.00
Ratio Treated/Solvent [1, 8]: 0.84
Mean Revertants Per Well [1, 9]: 0.00
Ratio Treated/Solvent [1, 9]: 0.00
Mean Revertants Per Well [1, 10]: 0.00
Ratio Treated/Solvent [1, 10]: 0.00
Mean Revertants Per Well [1, 11]: 9.00
Ratio Treated/Solvent [1, 11]: 1.32
Mean Revertants Per Well [1, 12]: 8.00
Ratio Treated/Solvent [1, 12]: 1.17
Mean Revertants Per Well [1, 13]: 8.00
Ratio Treated/Solvent [1, 13]: 1.17
Mean Revertants Per Well [1, 14]: 8.33
Ratio Treated/Solvent [1, 14]: 1.22
Mean Revertants Per Well [1, 15]: 7.33
Ratio Treated/Solvent [1, 15]: 1.07
Mean Revertants Per Well [1, 16]: 7.33
Ratio Treated/Solvent [1, 16]: 1.07
Mean Revertants Per Well [1, 17]: 0.00
Ratio Treated/Solvent [1, 17]: 0.00
Mean Revertants Per Well [1, 18]: 0.00
Ratio Treated/Solvent [1, 18]: 0.00|
mutagenicity ([1]; TA98, presence or absence of S9): no obvious mutagenicity
Mean Revertants Per Well [2, 19]: 25.33
Ratio Treated/Solvent [2, 19]: 0.78
Mean Revertants Per Well [2, 20]: 30.33
Ratio Treated/Solvent [2, 20]: 0.93
Mean Revertants Per Well [2, 21]: 32.33
Ratio Treated/Solvent [2, 21]: 0.99
Mean Revertants Per Well [2, 22]: 28.67
Ratio Treated/Solvent [2, 22]: 0.88
Mean Revertants Per Well [2, 23]: 31.00
Ratio Treated/Solvent [2, 23]: 0.95
Mean Revertants Per Well [2, 24]: 28.33
Ratio Treated/Solvent [2, 24]: 0.87
Mean Revertants Per Well [2, 25]: 0.00
Ratio Treated/Solvent [2, 25]: 0.00
Mean Revertants Per Well [2, 26]: 0.00
Ratio Treated/Solvent [2, 26]: 0.00
Mean Revertants Per Well [2, 27]: 25.67
Ratio Treated/Solvent [2, 27]: 1.04
Mean Revertants Per Well [2, 28]: 25.33
Ratio Treated/Solvent [2, 28]: 1.03
Mean Revertants Per Well [2, 29]: 28.67
Ratio Treated/Solvent [2, 29]: 1.16
Mean Revertants Per Well [2, 30]: 19.00
Ratio Treated/Solvent [2, 30]: 0.77
Mean Revertants Per Well [2, 31]: 23.33
Ratio Treated/Solvent [2, 31]: 0.95
Mean Revertants Per Well [2, 32]: 17.33
Ratio Treated/Solvent [2, 32]: 0.70
Mean Revertants Per Well [2, 33]: 0.00
Ratio Treated/Solvent [2, 33]: 0.00
Mean Revertants Per Well [2, 34]: 0.00
Ratio Treated/Solvent [2, 34]: 0.00
mutagenicity ([2]; TA100, presence or absence of S9): no obvious mutagenicity
